Test results reported in PubChem BioAssay AID2060893 (Molecular Pharmacology Branch, DTP, NCI, 2025).

Tested on: K86415-001-R-J1-PDC complex spheroids, viability
Experiment: Anticancer human tumor K86415-001-R-J1-PDC patient-derived lung adenocarcinoma cell line growth inhibition [RAS]
Settings: for IC50: curve of first compound; for viability, T/C: stronger effect = lower value
Source text: RAS pathway inhibitors in Combinations in Complex Spheroids
A high-throughput screen of multi-cell type tumor spheroids was designed to identify active combinations of RAS pathway inhibitors and targeted small molecules. Complex spheroids include a stromal component modeled by human endothelial cells (HUVEC) and fibroblasts modeled by human mesenchymal stem cells (MSCs). The concentration ranges selected for each drug and investigational agent were based upon clinically achievable concentrations if the clinical Cmax of the agent was known.
Compounds. The drugs and investigational agents: abemaciclib (NSC768073), cobimetinib (NSC768068), divarasib (GDC6063, NSC841802), docetaxel (NSC628503), GDC-1971 (RLY-1971, NSC841576), gemcitabine (NSC613327), inavolisib (NSC800729), ipatasertib (NSC767898), KB-0742 (NSC834161), MRTX-1133 (NSC836407), osimertinib (NSC779217), RMC-4630 (NSC839698), RMC-6236 (NSC851965), RMC-6291 (NSC852671), Ro-3306 (NSC812927), sapanisertib (NSC764658), SN-38 (NSC673596), staurosporine (NSC755774), SY5609 (NSC837396), and tovorafenib (DAY101, NSC766906), were obtained from the National Cancer Institute (NCI) Developmental Therapeutics Program Chemical Repository. The FDA-approved anticancer drug set is available from the NCI Developmental Therapeutics Program. […] The stock solutions were prepared in dimethyl sulfoxide (DMSO, Sigma-Aldrich, St. Louis, MO, cat. D2650) at 800-fold the tested concentration and stored at -70 degrees C prior to their use. All drugs and investigational agents were tested over a range starting from a high concentration at or near the clinical Cmax and decreasing in half-log increments. If the clinical Cmax for an agent had not been determined, the highest concentration tested was 10 microM.
Cell Culture. All cells were maintained in an incubator at 37 degrees C and 5% CO2 with 95% humidity. The PDC lines were cultured according to standard operating procedures established by the NCI PDMR. All PDCs were thawed and cultured in Matrigel-coated flasks prepared with a working solution of 1X Ham's F-12 nutrient mix, without supplementation (Invitrogen, Waltham, MA, cat. 11765054), 100 U/mL penicillin-streptomycin (Invitrogen, cat. 15140122), and 2.5% Matrigel (Corning Inc., Corning, NY, cat. 354248) for the first three passages. The 362531-283-R-J2-PDC and 782815-120-R-J1-PDC lines were cultured in 6C/Colon 1B media, which includes advanced DMEM/F-12 (Thermo Fisher Scientific, cat. 12634028), 10 mM HEPES (Thermo Fisher Scientific, cat. 15630080), 1X GlutaMAX supplement (Thermo Fisher Scientific, cat. 35050061), 0.1 mg/mL primocin (InvivoGen, San Diego, CA, cat. ant-pm-2), 10% defined fetal bovine serum, heat inactivated (HyClone Laboratories Inc., Logan, UT, cat. SH30070.03HI), 50% L-WRN conditioned media (ATCC, cat. CRL-3276), 1.25 mM N-Acetyl-L-cysteine (Sigma-Aldrich, cat. A9165), 10 mM nicotinamide (Sigma-Aldrich, cat. N0636), 1X B-27 supplement (Thermo Fisher Scientific, cat. 17504044), 1X N-2 supplement (Thermo Fisher Scientific, cat. 17502048), 50 ng/mL human EGF (Thermo Fisher Scientific, cat. PHG0311), and 10 microM Y-27632 dihydrochloride (Tocris Bioscience, cat. 1254). The K12877-001-R-J1-PDC line was cultured in 6I media, which includes all 6C/Colon 1B media plus 10 ng/mL human FGF-10 (PeproTech, cat. 100-26), 1 ng/mL human FGF-2 (PeproTech, cat. 100-18B), 1 µM prostaglandin E2 (Tocris Bioscience, cat. 2296), […] hydrocortisone (Sigma-Aldrich, cat. H4001), and […] bovine insulin (Sigma-Aldrich, cat. I6634). The K86415-001-R-J1-PDC line was cultured in 6D media, which includes all 6C/Colon 1B media components minus the L-WRN conditioned media. The 485176-168-R4-J1-PDC was cultured in PANC media, which includes all 6C/Colon 1B media plus 100 ng/mL human FGF-10 (PeproTech, cat. 100-26), 500 nM SB-431542 (Selleckchem, cat. S1067), and 10 nM gastrin (Tocris Bioscience, cat. 3006). […]
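Note: spheroids exposed to agents for seven days before readout.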

SMILES: C=CC(=O)N1CCN(c2nc(OCC3CCCN3C)nc3c(F)c(-c4nc(N)cc(C)c4C(F)(F)F)c(Cl)cc23)C(C)C1 (configuration not stated) + CCn1c(-c2cccnc2C(C)OC)c2c3cc(ccc31)N1CCOC(CC(NC(=O)C(C(C)C)N(C)C(=O)C3(F)CCN(C(=O)C#CC(C)(C)N(C)C)CC3)C(=O)N3CCCC(N3)C(=O)OCC(C)(C)C2)C1
- IC50 (second compound 0.000949 µM): < 3.16 nM
- IC50 (second compound 0.003 µM): < 3.16 nM
- IC50 (second compound 0.00949 µM): < 3.16 nM
- IC50 (second compound 0.03 µM): < 3.16 nM
- IC50 (second compound 0.0949 µM): < 3.16 nM
- IC50 (second compound 0.3 µM): < 3.16 nM
- viability, T/C (second compound 0.000949 µM, first compound 0.00316 µM): 13.8%
- viability, T/C (second compound 0.000949 µM, first compound 0.01 µM): 12.1%
- viability, T/C (second compound 0.000949 µM, first compound 0.0316 µM): 9.94%
- viability, T/C (second compound 0.000949 µM, first compound 0.1 µM): 9.02%
- viability, T/C (second compound 0.000949 µM, first compound 0.316 µM): 11.8%
- viability, T/C (second compound 0.000949 µM, first compound 1 µM): 9.5%
- viability, T/C (second compound 0.003 µM, first compound 0.00316 µM): 13.5%
- viability, T/C (second compound 0.003 µM, first compound 0.01 µM): 12.9%
- viability, T/C (second compound 0.003 µM, first compound 0.0316 µM): 12.2%
- viability, T/C (second compound 0.003 µM, first compound 0.1 µM): 11.1%
- viability, T/C (second compound 0.003 µM, first compound 0.316 µM): 12%
- viability, T/C (second compound 0.003 µM, first compound 1 µM): 9.09%
- viability, T/C (second compound 0.00949 µM, first compound 0.00316 µM): 13.7%
- viability, T/C (second compound 0.00949 µM, first compound 0.01 µM): 10.7%
- viability, T/C (second compound 0.00949 µM, first compound 0.0316 µM): 14.6%
- viability, T/C (second compound 0.00949 µM, first compound 0.1 µM): 10.1%
- viability, T/C (second compound 0.00949 µM, first compound 0.316 µM): 10.7%
- viability, T/C (second compound 0.00949 µM, first compound 1 µM): 11.4%
- viability, T/C (second compound 0.03 µM, first compound 0.00316 µM): 13%
- viability, T/C (second compound 0.03 µM, first compound 0.01 µM): 13.4%
- viability, T/C (second compound 0.03 µM, first compound 0.0316 µM): 11.1%
- viability, T/C (second compound 0.03 µM, first compound 0.1 µM): 11.8%
- viability, T/C (second compound 0.03 µM, first compound 0.316 µM): 11.7%
- viability, T/C (second compound 0.03 µM, first compound 1 µM): 16.2%
- viability, T/C (second compound 0.0949 µM, first compound 0.00316 µM): 11%
- viability, T/C (second compound 0.0949 µM, first compound 0.01 µM): 10.7%
- viability, T/C (second compound 0.0949 µM, first compound 0.0316 µM): 13.2%
- viability, T/C (second compound 0.0949 µM, first compound 0.1 µM): 11.2%
- viability, T/C (second compound 0.0949 µM, first compound 0.316 µM): 12.8%
- viability, T/C (second compound 0.0949 µM, first compound 1 µM): 15.8%
- viability, T/C (second compound 0.3 µM, first compound 0.00316 µM): 12%
- viability, T/C (second compound 0.3 µM, first compound 0.01 µM): 12.6%
- viability, T/C (second compound 0.3 µM, first compound 0.0316 µM): 14.4%
- viability, T/C (second compound 0.3 µM, first compound 0.1 µM): 11.2%
- viability, T/C (second compound 0.3 µM, first compound 0.316 µM): 14%
- viability, T/C (second compound 0.3 µM, first compound 1 µM): 14.1%
